These results are taken from patent US20170022171A1, “2,5-DISUBSTITUTED CYCLOPENTANECARBOXYLIC ACIDS AND THEIR USE” (Bayer Pharma Aktiengesellschaft, priority 2014, published 2017).

Assay type in all cases: biochemical
In test [1] the target is T1, human macrophage elastase (HME/hMMP-12) (Homo sapiens, UniProt P39900).
T1 construct: 0.5 nM HME; purchased R&D Systems 917-MP
The test can be described thus: In vitro HME inhibition test (standard or high-sensitivity). Particulars: in some cases mean values. Summed up: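 Fluorogenic assay: 0.5 nM autoactivated HME with 5 µM Mca-Pro-Leu-Gly-Leu-Glu-Glu-Ala-Dap(Dnp)-NH2 in HEPES pH 7.4 buffer (NaCl, CaCl2, ZnCl2, EDTA, Brij), 2 h at 37 °C; ex 323/em 393 nm. IC50 from fluorescence versus concentration. High-sensitivity format: ~0.05 nM enzyme, ~16 h incubation.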

The target of the next test is T2, MMP-1 (Homo sapiens, UniProt P03956).
T2 construct: purchased R&D Systems 901-MP
T2 sequence (P03956 100-469): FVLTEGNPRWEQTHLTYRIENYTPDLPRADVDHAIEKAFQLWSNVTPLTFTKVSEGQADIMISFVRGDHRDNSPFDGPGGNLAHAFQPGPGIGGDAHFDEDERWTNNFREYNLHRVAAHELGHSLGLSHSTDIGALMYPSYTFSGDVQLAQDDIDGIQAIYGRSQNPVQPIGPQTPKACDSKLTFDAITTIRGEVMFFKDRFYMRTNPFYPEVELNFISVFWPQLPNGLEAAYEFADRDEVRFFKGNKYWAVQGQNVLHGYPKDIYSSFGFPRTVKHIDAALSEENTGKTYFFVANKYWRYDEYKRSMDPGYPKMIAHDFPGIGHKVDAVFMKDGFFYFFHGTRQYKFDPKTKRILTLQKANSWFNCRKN
Put plainly: In vitro MMP-1 inhibition test. Summed up:
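APMA-activated recombinant enzyme (e.g. 2 nM final) in 50 mM Tris/HCl pH 7.5, 10 mM CaCl2, 150 mM NaCl, 0.05% Brij-35 with compound in DMSO (e.g. 1 nM–30 μM). Quenched Mca-Pro-Leu-Gly-Leu-Dpa(Dnp)-Ala-Arg-NH2 substrate (e.g. 10 μM) started reaction; fluorescence (ex 320/em 410 nm) followed e.g. 120 min at 32° C; IC50 at 50% signal.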

Another test has as its target T3, MMP-10 (Homo sapiens, UniProt P09238).
T3 construct: purchased R&D Systems 910-MP
The test can be described thus: In vitro MMP-10 inhibition test. In a few lines: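 APMA-activated recombinant MMP-10 (final e.g. 2 nM) with quenched Mca-Arg-Pro-Lys-Pro-Val-Glu-Nval-Trp-Arg-Lys(Dnp)-NH2 substrate (final e.g. 10 μM) in 50 mM Tris/HCl pH 7.5, 10 mM CaCl2, 150 mM NaCl, 0.05% Brij-35. Fluorescence (ex 320/em 410 nm) followed e.g. 120 min at 32 °C. IC50 at 50% signal.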

In the next test the target is T4, MMP-14 (Homo sapiens, UniProt P50281).
T4 construct: purchased R&D Systems 918-MP
The test can be described thus: In vitro MMP-14 inhibition test. Summed up: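 Furin-activated recombinant MMP-14 (e.g. 0.5 nM final) with compound in Tris pH 7.5, CaCl2, NaCl, Brij-35 buffer; Mca/Dnp quenched peptide substrate, e.g. 5 μM final. Fluorescence (ex 320/em 410 nm) followed e.g. 120 min at 32 °C; IC50 at half-maximal signal.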

pIC50: −log10 of the molar value.

T1 sequence (P39900 106-470): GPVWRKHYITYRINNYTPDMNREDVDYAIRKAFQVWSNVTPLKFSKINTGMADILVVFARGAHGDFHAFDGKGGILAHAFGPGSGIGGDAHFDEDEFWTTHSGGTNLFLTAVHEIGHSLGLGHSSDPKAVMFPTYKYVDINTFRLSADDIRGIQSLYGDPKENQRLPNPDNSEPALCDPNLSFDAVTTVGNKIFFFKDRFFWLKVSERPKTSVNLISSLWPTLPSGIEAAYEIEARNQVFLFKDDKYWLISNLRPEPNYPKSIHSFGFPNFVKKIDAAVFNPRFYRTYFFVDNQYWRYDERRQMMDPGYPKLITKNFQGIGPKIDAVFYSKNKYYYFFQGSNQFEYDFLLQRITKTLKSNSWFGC
T3 sequence (P09238 99-476): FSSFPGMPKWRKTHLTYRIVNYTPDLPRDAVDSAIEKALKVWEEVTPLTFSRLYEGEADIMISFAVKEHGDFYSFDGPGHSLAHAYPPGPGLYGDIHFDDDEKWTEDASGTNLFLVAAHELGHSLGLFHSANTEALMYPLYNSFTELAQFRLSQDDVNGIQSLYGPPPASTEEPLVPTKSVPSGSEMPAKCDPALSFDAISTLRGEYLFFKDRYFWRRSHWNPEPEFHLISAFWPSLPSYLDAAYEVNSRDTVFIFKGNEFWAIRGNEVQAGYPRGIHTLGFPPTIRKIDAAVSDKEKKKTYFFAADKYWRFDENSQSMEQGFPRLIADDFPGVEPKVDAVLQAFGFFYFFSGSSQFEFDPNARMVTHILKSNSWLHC

Turning to `CCCCCCOc1ccc(C(=O)[C@@H]2CC[C@H](Cn3nnc4ccc(C(F)(F)F)cc4c3=O)[C@H]2C(=O)O)cc1` (single isomer, unassigned) [Example 58, (+)-(1RS,2RS,5SR)-2-[4-(Hexyloxy)benzoyl]-5-{[4-oxo-6-(trifluoromethyl)-1,2,3-benzotriazin-3(4H)-yl]methyl}cyclopentanecarboxylic acid], the pIC50 in test [1] was 10.57; against MMP-1 it was 5.08; at MMP-10, 7.54; on MMP-14, 5.89.
On the same counts, the results for `COc1cccc(COc2ccc(C(=O)[C@H]3CC[C@@H](Cn4nnc5ccc(C)cc5c4=O)[C@@H]3C(=O)O)cc2)c1` (racemic) [Example 106, (+/−)-(1RS,2RS,5SR)-2-{4-[(3-Methoxybenzyl)oxy]benzoyl}-5-[(6-methyl-4-oxo-1,2,3-benzotriazin-3(4H)-yl)methyl]cyclopentanecarboxylic acid] are 10.11, 4.92, 7.41 and 6.74.
On the same counts, the results for `O=C(O)[C@@H]1[C@@H](Cn2nnc3ccc(C(F)(F)F)cc3c2=O)CC[C@H]1C(=O)c1ccc(SCc2ccccc2)cc1` (single isomer, unassigned) [Example 75, (+)-(1RS,2RS,5SR)-2-[4-(Benzylsulphanyl)benzoyl]-5-{[4-oxo-6-(trifluoromethyl)-1,2,3-benzotriazin-3(4H)-yl]methyl}cyclopentanecarboxylic acid] are 10.29, 4.68, 7.24 and 5.72.
On the same counts, the results for `O=C(O)[C@@H]1[C@@H](Cn2nnc3ccc(C(F)(F)F)cc3c2=O)CC[C@H]1C(=O)c1ccc(OCC2CCCCC2)cc1` (single isomer, unassigned) [Example 41, (+)-(1RS,2RS,5SR)-2-[4-(Cyclohexylmethoxy)benzoyl]-5-{[4-oxo-6-(trifluoromethyl)-1,2,3-benzotriazin-3(4H)-yl]methyl}cyclopentanecarboxylic acid] are 11.00, 5.51, 7.70 and 6.96.
`O=C(O)[C@H]1[C@H](Cn2nnc3ccc(C(F)(F)F)cc3c2=O)CC[C@@H]1C(=O)c1ccc(OCc2ccc(F)cc2)cc1` (racemic) [Example 12, (+/−)-(1RS,2RS,5SR)-2-{4-[(4-Fluorobenzyl)oxy]benzoyl}-5-{[4-oxo-6-(trifluoromethyl)-1,2,3-benzotriazin-3(4H)-yl]methyl}cyclopentanecarboxylic acid]: the pIC50 in test [1] was 10.72; against MMP-1, 5.60; on MMP-10, 7.82; at MMP-14 it was 7.11.
On the same counts, the results for “(+)-(1RS,2SR,5RS)-2-{[4-Oxo-6-(trifluoromethyl)-1,2,3-benzotriazin-3(4H)-yl]methyl}-5-{4-[(2-phenylethy)sulphanyl]benzoyl}cyclopentanecarboxylic acid [Example 83]” are 9.96, less than 4.40, 6.92 and 5.41.
On the same counts, the results for `Cc1ccc2nnn(C[C@H]3CC[C@@H](C(=O)c4ccc(OCc5cccc(C(F)(F)F)c5)cc4)[C@@H]3C(=O)O)c(=O)c2c1` (single isomer, unassigned) [Example 101, (+)-(1RS,2SR,5RS)-2-[(6-Methyl-4-oxo-1,2,3-benzotriazin-3(4H)-yl)methyl]-5-(4-{[3-(trifluoromethyl)benzyl]oxy}benzoyl)cyclopentanecarboxylic acid] are 10.07, 4.85, 6.96 and 6.42.
On the same counts, the results for `O=C(O)[C@@H]1[C@@H](Cn2nnc3ccc(C(F)(F)F)cc3c2=O)CC[C@H]1C(=O)c1ccc(OCc2ccc(F)cc2)cc1` (single isomer, unassigned) [Example 13, (+)-(1RS,2RS,5SR)-2-{4-[(4-Fluorobenzyl)oxy]benzoyl}-5-{[4-oxo-6-(trifluoromethyl)-1,2,3-benzotriazin-3(4H)-yl]methyl}cyclopentanecarboxylic acid] are 10.74, 5.48, 7.66 and 6.82.
In the case of `Cc1ccc2nnn(C[C@H]3CC[C@@H](C(=O)c4ccc(OCc5ccccc5)cc4)[C@@H]3C(=O)O)c(=O)c2c1` (single isomer, unassigned) [Example 92, (+)-(1RS,2RS,5SR)-2-[4-(Benzyloxy)benzoyl]-5-[(6-methyl-4-oxo-1,2,3-benzotriazin-3(4H)-yl)methyl]cyclopentanecarboxylic acid], the pIC50 in test [1] was 10.32; on MMP-1, 5.51; against MMP-10, 7.82; on MMP-14, 7.48.
On the same counts, the results for `Cc1cccc(COc2ccc(C(=O)[C@@H]3CC[C@H](Cn4nnc5ccc(C)cc5c4=O)[C@H]3C(=O)O)cc2)c1` (single isomer, unassigned) [Example 98, (+)-(1RS,2RS,5SR)-2-{4-[(3-Methylbenzyl)oxy]benzoyl}-5-[(6-methyl-4-oxo-1,2,3-benzotriazin-3(4H)-yl)methyl]cyclopentanecarboxylic acid] are 10.00, 5.02, 7.26 and 6.68.
On the same counts, the results for `Cc1ccc2nnn(C[C@@H]3CC[C@H](C(=O)c4ccc(OCc5ccccc5)cc4)[C@H]3C(=O)O)c(=O)c2c1` (racemic) [Example 91, (+/−)-(1RS,2RS,5SR)-2-[4-(Benzyloxy)benzoyl]-5-[(6-methyl-4-oxo-1,2,3-benzotriazin-3(4H)-yl)methyl]cyclopentanecarboxylic acid] are 10.13, 5.24, 7.68 and 7.17.
For `O=C(O)[C@H]1[C@H](Cn2nnc3ccccc3c2=O)CC[C@@H]1C(=O)c1ccc(OCC2CCCC2)cc1` (racemic) [Example 4, (+/−)-(1RS,2RS,5SR)-2-[4-(Cyclopentylmethoxy)benzoyl]-5-[(4-oxo-1,2,3-benzotriazin-3(4H)-yl)methyl]cyclopentanecarboxylic acid], the pIC50 is 10.31 in test [1], 4.55 at MMP-1, 6.96 at MMP-10 and 7.48 on MMP-14.

For orientation: pIC50 means the IC50 on a negative log10 scale, so that one unit is a factor of ten.
